Data reported in US7112590B2, “Thrombin inhibitors” (LEK Pharmaceuticals d.d., priority 2000, dated 2006).

Structure (SMILES)	melting point [°C]
CC(C)(C)OC(=O)N[C@H](Cc1ccc(Cl)c(Cl)c1)C(=O)N1CCC[C@H]1C(=O)NC1CCc2nc(N)sc2C1 (stereo partly drawn) [Example 34, tert-Butyl (1R)-2-((2S)-2-{[(2-amino-4,5,6,7-tetrahydro-1,3-benzothiazol-6-yl)amino]carbonyl}pyrrolidinyl)-1-(3,4-dichlorobenzyl)-2-oxoethylcarbamate]	116 to 119
Cl.Cl.Nc1ncc2c(n1)CCC(CNC(=O)[C@@H]1CCCN1C(=O)[C@H](N)Cc1ccc(Cl)c(Cl)c1)C2 (some centres unmarked)	169 to 172
Nc1nc2c(s1)CC(NC(=O)[C@@H]1CCCN1C(=O)[C@@H](CC1CCCCC1)NS(=O)(=O)Cc1ccccc1)CC2 (stereo partly drawn) [Example 28, (2S)-N-(2-Amino-4,5,6,7-tetrahydro-1,3-benzothiazol-6-yl)-1-{(2R)-2-[(benzylsulfonyl)amino]-3-cyclohexylpropanoyl}-2-pyrrolidinecarboxamide]	127 to 130
Nc1nc2ccc(NC(=O)CNC(=O)[C@@H](Cc3ccccc3)NS(=O)(=O)Cc3ccccc3)cc2s1 [Example 39, (2R)-N-{2-[(2-Amino-1,3-benzothiazol-6-yl)amino]-2-oxoethyl}-2-[(benzylsulfonyl)amino]-3-phenylpropanamide]	127 to 130
CC(C)(C)OC(=O)N[C@H](Cc1ccc(Cl)c(Cl)c1)C(=O)N1CCC[C@H]1C(=O)NC1CCc2n[nH]cc2C1 (stereo partly drawn) [Example 16, tert-Butyl (1R)-1-(3,4dichlorobenzyl)-2-oxo-2-{(2S)-2-[(4,5,6,7-tetrahydro-2H-indazol-5-ylamino)carbonyl]pyrrolidinyl}ethylcarbamate]	116 to 119
Cl.Cl.N[C@H](Cc1ccccc1)C(=O)N1CCC[C@H]1C(=O)NC1CCc2n[nH]cc2C1 (some centres unmarked)	203 to 206
CC(C)(C)OC(=O)N[C@H](Cc1ccc(Cl)c(Cl)c1)C(=O)N1CCC[C@H]1C(=O)NCC1CCc2n[nH]cc2C1 (stereo partly drawn) [Example 59, tert-Butyl (1R)-1-(3,4-dichlorobenzyl)-2-oxo-2-((2S)-2-{[(4,5,6,7-tetrahydro-2H-indazol-5-ylmethyl)amino]carbonyl}pyrrolidinyl)ethylcarbamate]	100 to 103
CC(C)(C)OC(=O)N[C@@H](C(=O)N1CCC[C@H]1C(=O)NCC1CCc2nc(N)ncc2C1)C(c1ccccc1)c1ccccc1 (stereo partly drawn) [Example 67, tert-Butyl (1R)-2-[(2S)-2-({[(2-amino-5,6,7,8-tetrahydro-6-quinazolinyl)methyl]amino}carbonyl)pyrrolidinyl]-1-benzhydryl-2-oxoethylcarbamate]	127 to 130
CC(C)(C)OC(=O)N[C@H](Cc1ccccc1)C(=O)N1CCC[C@H]1C(=O)NC1CCc2nc(N)ncc2C1 (some centres unmarked) [Example 7]	110 to 113
Cl.Cl.O=C(O)CN[C@H](CC1CCCCC1)C(=O)N1CCC[C@H]1C(=O)NCC1CCc2n[nH]cc2C1 (some centres unmarked)	144 to 147
Cl.Cl.Nc1ncc2c(n1)CCC(NC(=O)[C@@H]1CCCN1C(=O)[C@@H](N)C(c1ccccc1)c1ccccc1)C2 (some centres unmarked)	212 to 215
CC(C)(C)OC(=O)N[C@H](C(=O)N1CCC[C@H]1C(=O)NC1CCc2nc(N)ncc2C1)C(c1ccccc1)c1ccccc1 (stereo partly drawn) [Example 13, tert-Butyl (1S)-2-((2S)-2-{[(2-amino-5,6,7,8-tetrahydro-6-quinazolinyl)amino]carbonyl}pyrrolidinyl)-1-benzhydryl-2-oxoethylcarbamate]	127 to 130
C[C@H](NC(=O)[C@@H](Cc1ccccc1)NS(=O)(=O)Cc1ccccc1)C(=O)NC1CCc2nc(N)sc2C1 (stereo partly drawn) [Example 32, (2R)-N-{(1S)-2-[(2-Amino-4,5,6,7-tetrahydro-1,3-benzothiazol-6-yl)amino]-1-methyl-2-oxoethyl}-2-[(benzylsulfonyl)amino]-3-phenylpropanamide]	122 to 125
Nc1nc2ccc(NC(=O)[C@@H]3CCCN3C(=O)[C@@H](Cc3ccccc3)NS(=O)(=O)Cc3ccccc3)cc2s1 [Example 38, (2S)-N-(2-Amino-1,3-benzothiazol-6-yl)-1-{(2R)-2-[(benzylsulfonyl)amino]-3-phenylpropanoyl}-2-pyrrolidinecarboxamide]	130 to 133
CC(C)(C)OC(=O)N[C@H](C(=O)N1CCC[C@H]1C(=O)NC1CCc2n[nH]cc2C1)C(c1ccccc1)c1ccccc1 (stereo partly drawn) [Example 15, tert-Butyl (1S)-1-benzhydryl-2-oxo-2-{(2S)-2-[(4,5,6,7-tetrahydro-2H-indazol-5-ylamino)carbonyl]pyrrolidinyl}ethylcarbamate]	127 to 130
Cl.Cl.Nc1nc2c(s1)CC(NC(=O)[C@@H]1CCCN1C(=O)[C@@H](CC1CCCCC1)NCC(=O)O)CC2 (some centres unmarked)	180 to 182
CC(C)(C)OC(=O)N[C@H](Cc1ccccc1)C(=O)N1CCC[C@H]1C(=O)NC1CCc2nc(N)sc2C1 (stereo partly drawn) [Example 25, tert-Butyl (1R)-2-((2S)-2-{[(2-amino-4,5,6,7-tetrahydro-1,3-benzothiazol-6-yl)amino]carbonyl}pyrrolidinyl)-1-benzyl-2oxoethylcarbamate]	120 to 123
Cl.Cl.N[C@H](C(=O)N1CCC[C@H]1C(=O)NC1CCc2n[nH]cc2C1)C(c1ccccc1)c1ccccc1 (some centres unmarked)	195 to 198

Structure (SMILES)	melting point [°C]
Nc1nc2c(s1)CC(CNC(=O)[C@@H]1CCCN1C(=O)[C@@H](CC1CCCCC1)NS(=O)(=O)Cc1ccccc1)CC2 (stereo partly drawn) [Example 69, (2S)-N-[(2-Amino-4,5,6,7-tetrahydro-1,3-benzothiazol-6-yl)methyl]-1-{(2R)-2-[(benzylsulfonyl)amino]-3-cyclohexylpropanoyl}-2-pyrrolidinecarboxamide]	203 to 205
Cl.Cl.Nc1nc2c(s1)CC(NC(=O)[C@@H]1CCCN1C(=O)[C@H](N)Cc1ccccc1)CC2 (some centres unmarked)	225 to 228
Nc1ncnc2ccc(NC(=O)[C@@H]3CCCN3C(=O)CNC(c3ccccc3)(c3ccccc3)c3ccccc3)cc12 [Example 42, (2S)-N-(4-amino-6-quinazolinyl)-1-{2-[(triphenylmethyl)amino]acetyl}-2-pyrrolidinecarboxamide]	> 250
Cl.Cl.Nc1ncc2c(n1)CCC(NC(=O)[C@@H]1CCCN1C(=O)[C@H](N)Cc1ccc(Cl)c(Cl)c1)C2 (some centres unmarked)	201 to 204
CC(C)(C)OC(=O)N[C@H](C(=O)N1CCC[C@H]1C(=O)NC1CCc2nc(N)sc2C1)C(c1ccccc1)c1ccccc1 (stereo partly drawn) [Example 35, tert-Butyl (1S)-2-((2S)-2-{[(2-amino-4,5,6,7-tetrahydro-1,3-benzothiazol-6-yl)amino]carbonyl}pyrrolidinyl)-1-benzhydryl-2-oxoethylcarbamate]	127 to 130
O=C(NC1CCc2c[nH]cc2C1)[C@@H]1CCCN1C(=O)[C@@H](CC1CCCCC1)NS(=O)(=O)Cc1ccccc1 (stereo partly drawn) [Example 63, (2S)-1-{(2R)-2-[(Benzylsulfonyl)amino]-3-cyclohexylpropanoyl}-N-(4,5,6,7-tetrahydro-2H-isoindol-5-yl)-2-pyrrolidinecarboxamide]	106 to 109
Nc1nc2c(s1)CC(NC(=O)[C@@H]1CCCN1C(=O)[C@@H](Cc1ccccc1)NS(=O)(=O)c1ccc3ccccc3c1)CC2 (stereo partly drawn) [Example 30, (2S)-N-(2-Amino-4,5,6,7-tetrahydro-1,3-benzothiazol-6-yl)-1-{(2R)-2-[(2-naphthylsulfonyl)amino]-3-phenylpropanoyl}-2-pyrrolidinecarboxamide]	128 to 131
O=C(NCC1CCc2n[nH]cc2C1)[C@@H]1CCCN1C(=O)[C@@H](CC1CCCCC1)NS(=O)(=O)Cc1ccccc1 (stereo partly drawn) [Example 58, (2S)-1-{(2R)-2-[(Benzylsulfonyl)amino]-3-cyclohexylpropanoyl}-N-(4,5,6,7-tetrahydro-2H-indazol-5-ylmethyl)-2-pyrrolidinecarboxamide]	100 to 103
Cl.Cl.Nc1ncc2c(n1)CCC(NC(=O)[C@@H]1CCCN1C(=O)[C@H](N)Cc1ccccc1)C2 (some centres unmarked)	205 to 208
Cl.Cl.N[C@H](Cc1ccc(Cl)c(Cl)c1)C(=O)N1CCC[C@H]1C(=O)NC1CCc2n[nH]cc2C1 (some centres unmarked)	199 to 202
CC(C)(C)OC(=O)N[C@H](Cc1ccc(Cl)c(Cl)c1)C(=O)N1CCC[C@H]1C(=O)NCC1CCc2nc(N)ncc2C1 (stereo partly drawn) [Example 61, tert-Butyl (1R)-2-[(2S)-2-({[(2-amino-5,6,7,8-tetrahydro-6-quinazolinyl)methyl]amino}carbonyl)pyrrolidinyl]1-(3,4dichlorobenzyl)-2-oxoethylcarbamate]	110 to 113
Cl.Cl.Nc1ncc2c(n1)CCC(NC(=O)[C@@H]1CCCN1C(=O)[C@H](N)C(c1ccccc1)c1ccccc1)C2 (some centres unmarked)	199 to 202
Nc1nc2c(s1)CC(NC(=O)[C@@H]1CCCN1C(=O)CNC(c1ccccc1)(c1ccccc1)c1ccccc1)CC2 (stereo partly drawn) [Example 33, (2S)-N-(2-Amino-4,5,6,7-tetrahydro-1,3-benzothiazol-6-yl)-1-[2-(tritylamino)acetyl]-2-pyrrolidinecarboxamide]	125 to 128
Cl.Cl.N[C@@H](C(=O)N1CCC[C@H]1C(=O)NC1CCc2n[nH]cc2C1)C(c1ccccc1)c1ccccc1 (some centres unmarked)	190 to 193
Nc1nc2c(s1)CC(NC(=O)CNC(=O)[C@@H](Cc1ccccc1)NS(=O)(=O)Cc1ccccc1)CC2 (stereo partly drawn) [Example 31, (2R)-N-{2-[(2-Amino-4,5,6,7-tetrahydro-1,3-benzothiazol-6-yl)amino]-2-oxoethyl}-2-[(benzylsulfonyl)amino]3-phenylpropanamide]	119 to 122
Nc1nc2c(s1)CC(NC(=O)[C@@H]1CCCN1C(=O)[C@@H](Cc1ccccc1)NS(=O)(=O)Cc1ccccc1)CC2 (stereo partly drawn) [Example 27, (2S)-N-(2-amino-4,5,6,7-tetrahydro-1,3-benzothiazol-6-yl)-1-{(2R)-2-[(benzylsulfonyl)amino]-3-phenylpropanoyl}-2-pyrrolidinecarboxamide]	126 to 129
Nc1ncc2c(n1)CCC(CNC(=O)[C@@H]1CCCN1C(=O)[C@@H](CC1CCCCC1)NS(=O)(=O)Cc1ccccc1)C2 (stereo partly drawn) [Example 57, (2S)-N-[(2-Amino-5,6,7,8-tetrahydro-6-quinazolinyl)methyl]-1-{(2R)-2-[(benzylsulfonyl)amino]-3-cyclohexylpropanoyl}-2-pyrrolidinecarboxamide]	118 to 121
